Experimental findings from US20060079453A1, “Hla binding peptides and their uses” (priority 2002, published 2006) are described below.

Among the targets are HLA-A*0301 (Homo sapiens, UniProt P04439); HLA-A*3101 (Homo sapiens, UniProt P04439, A270S/D185E/E176V/E277Q/F33T/G231S/G80R/H175R/I121M/I218V/I322F/K168Q/L300P/L318F/M331R/P217A/Q94H/R138Q/T323A/T345S/T97I/V358M); HLA-DR DRB3*0101 (DR52) (Homo sapiens, UniProt P01903+P79483); HLA-DR DRB1*0301 (DR3) (Homo sapiens, UniProt P01903+P01911, A100K/A102G/A103R/A169T/F55Y/I96L/K41T/L162R/M171V/P40S/Q125H/Q178H/Q39Y/R42S/S66N/T106N/T262R/W38E/Y61H); HLA-DR DRB1*0802 (DR8) (Homo sapiens, UniProt P01903+P01911, A100R/A103L/A169T/F76Y/H45Y/I96F/K41T/L162R/M171V/P40S/Q125H/Q178H/Q39Y/Q99D/R218S/R42G/S66Y/V115G/W38E).

Holding throughout (assay): biochemical
Common to all, as to assay type: binding

The next experiment addresses HLA-DR DRB4*0101 (DR53) (Homo sapiens, UniProt P01903+P13762, G164S). The following applies: DRB4 *0101.
Another experiment addresses HLA-DR DRB1*0701 (DR7) (Homo sapiens, UniProt P01903+P01911, A100R/A102G/A103Q/D57E/D86V/E43K/F76Y/K127E/L162R/M171V/P40G/Q125H/Q99D/R33Q/R42Y/R54Q/S133A/S66F/T210M/V115G/Y107V/Y59L/Y89S). The following applies: DRB1 *0701.
In another experiment the target is HLA-DR DRB5*0101 (DR51) (Homo sapiens, UniProt P01903+Q30154). The note with it: DRB5 *0101.
The target in another experiment is HLA-DR DRB1*0101 (DR1) (Homo sapiens, UniProt P01903+P01911, A100R/D57E/F55L/F60I/F76Y/I96L/L162R/M171V/P40L/Q125E/R42F/V115G/Y59C). The note with it: DRB1 *0101.
A further experiment addresses HLA-DR DRB1*1501 (DR15) (Homo sapiens, UniProt P01903+P01911). The note with it: DRBI *1501.
The target in the next experiment is HLA-DR DRB1*0401 (DR4) (Homo sapiens, UniProt P01903+P01911, A100K/A169T/F76Y/I96L/K127E/L162R/M171V/N62H/P40V/Q125Y/R42H/S133A/S149N/S66Y/V115G/V209L/W38E). The note with it: DRB1 *0401.
In the next experiment the target is HLA-DR DRB1*1302 (DR13) (Homo sapiens, UniProt P01903+P01911, A100E/A169T/K41T/L162R/M171V/P40S/Q125H/Q178H/Q39Y/Q99D/R42S/S66N/T262R/V115G/W38E/Y61H). The following applies: DRBI *1302.
The next experiment deals with HLA-DR DRB1*1101 (DR11) (Homo sapiens, UniProt P01903+P01911, A100R/A169T/A87E/I96F/K41T/L162R/M171V/P40S/Q125H/Q178H/Q39Y/Q99D/R42S/S66Y/T262R/V115G/W38E). The following applies: DRB1 *1101.
In the next experiment the target is HLA-DR DRB1*0901 (DR9) (Homo sapiens, UniProt P01903+P01911, A100R/A103E/D57H/D86V/F55Y/F60I/F76Y/I96F/K127E/L162R/M171V/P40D/Q125H/Q99R/R33Q/R42F/S133A/S66N/T210M/V115G/W38K/Y107V/Y59G/Y89S). The following applies: DRB1 *0901.
The mark [1] stands for this setting: read-out: A*0301 binding affinity (IC50).
Where [2] appears, read: read-out: A*3101 binding affinity (IC50).
Where [3] appears, read: read-out: A*0301 binding affinity (expressed as an IC50).
The mark [4] stands for this setting: read-out: A*3101 binding affinity (expressed as an IC50).

Like-named read-outs stand apart in the source and are kept apart here. No end group written: not given here.

Chain of HLA-DR DRB1*1302 (DR13) (P01903 26-254 limits assumed, other chains not shown): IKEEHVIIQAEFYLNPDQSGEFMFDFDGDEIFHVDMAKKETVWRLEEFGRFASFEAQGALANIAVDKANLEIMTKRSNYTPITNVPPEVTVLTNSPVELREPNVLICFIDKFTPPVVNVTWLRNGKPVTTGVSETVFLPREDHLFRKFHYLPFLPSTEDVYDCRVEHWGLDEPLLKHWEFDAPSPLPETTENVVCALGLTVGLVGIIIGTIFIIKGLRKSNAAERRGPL
Chain of HLA-DR DRB1*1101 (DR11) (P01903 26-254 limits assumed, other chains not shown): as above
Chain of HLA-DR DRB1*0301 (DR3) (P01903 26-254 limits assumed, other chains not shown): as above

For WTGSCLGGWK, on HLA-A*0301 (setting [1]), the IC50 is 7710 nM.
On to HTCNTIYR, for which the IC50 at HLA-A*3101 (setting [2]) was 726 nM; at HLA-A*0301 (setting [1]), 4860 nM.
With LLIRGINCQR, the IC50 on HLA-A*0301 (setting [3]) came to 2820 nM.
LFDKDTFFK: the IC50 against HLA-A*3101 stood at 5710 nM; at HLA-A*0301 it was 931 nM.
Consider VTIKLGGQIIR, for which the IC50 at HLA-A*3101 (setting [4]) was determined as 590 nM; at HLA-A*0301 (setting [3]) it was 43300 nM.
With LVYESSADDLR, the IC50 at HLA-A*0301 (setting [1]) is above 47000 nM.
For SEYGETLEK, the IC50 on HLA-A*3101 (setting [2]) worked out at 947 nM.
Take RTQCVQGKK: the IC50 at HLA-A*0301 (setting [1]) turned out to be 234 nM.
Regarding WVGRGIACWR, the IC50 at HLA-A*0301 (setting [3]) was 6230 nM.
As for VSIACVYGR, the IC50 at HLA-A*3101 (setting [2]) amounted to 42 nM.
With VAIKIGGQLK, the values for the IC50 at HLA-A*3101 (setting [4]) and at HLA-A*0301 (setting [3]) were 46900 nM and 2590 nM, respectively.
Regarding `CC[C@H](C)[C@H](NC(=O)[C@H](CO)NC(=O)[C@H](CC(N)=O)NC(=O)[C@H](C)NC(=O)[C@H](CC(C)C)NC(=O)[C@H](CCC(=O)O)NC(=O)[C@H](Cc1ccccc1)NC(=O)[C@@H](NC(=O)[C@H](CCSC)NC(=O)CN)C(C)C)C(=O)N[C@H](C(=O)N[C@@H](CC(C)C)C(=O)N1CCC[C@H]1C(=O)N[C@@H](Cc1ccccc1)C(=O)N[C@@H](CC(=O)O)C(=O)O)C(C)C`, the half-maximal inhibitory concentration (IC50) is 4150 nM against HLA-DR DRB4*0101 (DR53); 234 nM against HLA-DR DRB3*0101 (DR52); 30 nM on HLA-DR DRB1*0701 (DR7); 903 nM against HLA-DR DRB5*0101 (DR51); 4.6 µM at HLA-DR DRB1*0301 (DR3); 15 nM at HLA-DR DRB1*0101 (DR1). The IC50 is 5000 nM on HLA-DR DRB1*0802 (DR8); 83 nM on HLA-DR DRB1*1501 (DR15); 230 nM against HLA-DR DRB1*0401 (DR4); 12 nM at HLA-DR DRB1*1302 (DR13); above 50000 nM against HLA-DR DRB1*1101 (DR11); 0.081 µM at HLA-DR DRB1*0901 (DR9).
As to LHLLSNDMCARAYSE, the IC50 turned out to be 324 nM on HLA-DR DRB4*0101 (DR53); 1310 nM at HLA-DR DRB3*0101 (DR52); 27700 nM against HLA-DR DRB1*0701 (DR7); 28800 nM on HLA-DR DRB5*0101 (DR51); 0.938 µM against HLA-DR DRB1*0301 (DR3); 2100 nM against HLA-DR DRB1*0101 (DR1). Besides, the half-maximal inhibitory concentration (IC50) was 50200 nM against HLA-DR DRB1*0802 (DR8); above 2370 nM on HLA-DR DRB1*1501 (DR15); 4280 nM against HLA-DR DRB1*0401 (DR4); 1880 nM on HLA-DR DRB1*1302 (DR13); 26000 nM on HLA-DR DRB1*1101 (DR11); 59.9 µM at HLA-DR DRB1*0901 (DR9).
As to `CC[C@H](C)[C@H](NC(=O)[C@H](CS)NC(=O)[C@H](Cc1c[nH]cn1)NC(=O)[C@H](C)N)C(=O)N[C@@H](CCCNC(=N)N)C(=O)N[C@@H](CC(N)=O)C(=O)N[C@@H](CCCCN)C(=O)N[C@@H](CO)C(=O)N[C@H](C(=O)N[C@H](C(=O)N[C@@H](CC(C)C)C(=O)N[C@@H](CC(C)C)C(=O)NCC(=O)N[C@@H](CCCNC(=N)N)C(=O)N[C@@H](Cc1c[nH]cn1)C(=O)O)[C@@H](C)CC)C(C)C`, the half-inhibitory concentration (IC50) against HLA-DR DRB4*0101 (DR53) was 8.7 nM; against HLA-DR DRB3*0101 (DR52), 4750 nM; against HLA-DR DRB1*0701 (DR7) it was 2570 nM; against HLA-DR DRB5*0101 (DR51), 3630 nM; at HLA-DR DRB1*0301 (DR3), 29.7 µM; on HLA-DR DRB1*0101 (DR1), 578 nM. In addition, the IC50 is 104 nM on HLA-DR DRB1*0802 (DR8); 88 nM at HLA-DR DRB1*1501 (DR15); 69 nM at HLA-DR DRB1*0401 (DR4); 75 nM against HLA-DR DRB1*1302 (DR13); 93 nM on HLA-DR DRB1*1101 (DR11); 0.715 µM on HLA-DR DRB1*0901 (DR9).
Turning to `CC[C@H](C)[C@H](NC(=O)[C@H](Cc1c[nH]c2ccccc12)NC(=O)[C@H](CCCCN)NC(=O)[C@H](CCCNC(=N)N)NC(=O)[C@H](Cc1ccc(O)cc1)NC(=O)[C@H](Cc1c[nH]cn1)NC(=O)[C@@H](NC(=O)[C@@H](NC(=O)[C@H](CCCCN)NC(=O)[C@@H](NC(=O)[C@H](Cc1ccc(O)cc1)NC(=O)[C@H](CC(C)C)NC(=O)[C@H](CO)NC(=O)[C@@H]1CCCN1C(=O)[C@@H](N)CCCNC(=N)N)[C@@H](C)O)C(C)C)C(C)C)C(=O)O`, the IC50 on HLA-DR DRB4*0101 (DR53) amounted to 4900 nM; against HLA-DR DRB3*0101 (DR52), 2980 nM; against HLA-DR DRB1*0701 (DR7), 652 nM; at HLA-DR DRB5*0101 (DR51), 13 nM; at HLA-DR DRB1*0301 (DR3), 53.8 µM; against HLA-DR DRB1*0101 (DR1), 6040 nM. Besides, the IC50 turned out to be 39 nM against HLA-DR DRB1*0802 (DR8); 717 nM against HLA-DR DRB1*1501 (DR15); 339 nM against HLA-DR DRB1*0401 (DR4); 4180 nM against HLA-DR DRB1*1302 (DR13); 350 nM at HLA-DR DRB1*1101 (DR11); 5.48 µM against HLA-DR DRB1*0901 (DR9).
For the molecule IFISEYLINK, the IC50 stood at 462 nM on HLA-A*3101 (setting [2]) and 1990 nM on HLA-A*0301 (setting [1]).
For the molecule YLTNKHWQR, the IC50 on HLA-A*3101 (setting [2]) was determined as 4.4 nM.
